TGI data for seven compounds are collected here from PubChem BioAssay (NCI).

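Growth conditions: 96-well plates. Treatment: test compound, 48 hours, 5 concentrations. Analysis: linear interpolation between bracketing concentrations; unreached endpoints set to highest concentration. Definition used: TGI = concentration required for complete inhibition of growth.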

Test systems include NCI/ADR-RES ovarian; HL-60(TB) leukemia; HCC-2998 colon; DU-145 prostate; A498 renal; U251 CNS; NCI-H460 lung; SK-OV-3 ovarian; K-562 leukemia; OVCAR-5 ovarian; HCT-15 colon; HT29 colon; HOP-92 NSCLC; OVCAR-8 ovarian; COLO 205 colon; CCRF-CEM leukemia; CAKI-1 renal; TK-10 renal.
Holding throughout (assay): NCI-60 cell line screen, 48 h

In the case of `COc1cc(Br)cc2nc(-c3cccs3)oc12`, the TGI in the assay on NCI/ADR-RES ovarian, with HL-60(TB) leukemia, in the assay on HCC-2998 colon, in the assay with DU-145 prostate, in the assay with A498 renal and in the assay with U251 CNS was greater than 100 µM each time. The TGI in the assay with NCI-H460 lung, in the assay on SK-OV-3 ovarian, in the assay with K-562 leukemia, in the assay on OVCAR-5 ovarian, in the assay with HCT-15 colon and in the assay with HT29 colon was greater than 100 µM each time. Further, the TGI in the assay on HOP-92 NSCLC is greater than 100 µM; in the assay with OVCAR-8 ovarian, greater than 100 µM; in the assay on COLO 205 colon, greater than 100 µM; in the assay on CCRF-CEM leukemia, greater than 100 µM; in the assay with CAKI-1 renal, greater than 100 µM; in the assay with TK-10 renal, greater than 77.6 µM.
As for `CC(C)(C)OC(=O)NC(Cc1ccc(OCc2ccccc2)cn1)C(=O)NCc1ccccc1` (stereo unspecified), the TGI is 48.7 µM in the assay on NCI/ADR-RES ovarian; 33.7 µM in the assay on HL-60(TB) leukemia; greater than 100 µM in the assay on HCC-2998 colon; greater than 100 µM in the assay with DU-145 prostate; greater than 100 µM in the assay on A498 renal; greater than 100 µM in the assay on U251 CNS. For the same compound, the TGI in the assay on NCI-H460 lung was 69.7 µM; with SK-OV-3 ovarian, 51.6 µM; in the assay on K-562 leukemia, greater than 100 µM; in the assay with OVCAR-5 ovarian it was greater than 100 µM; with HCT-15 colon, 72.8 µM; with HT29 colon, greater than 100 µM. Moreover, the TGI was 60.4 µM with HOP-92 NSCLC; 82.1 µM with OVCAR-8 ovarian; 30.8 µM in the assay with COLO 205 colon; 43.5 µM in the assay with CCRF-CEM leukemia; greater than 100 µM with CAKI-1 renal; greater than 100 µM with TK-10 renal.
Consider `Cn1c(=O)c2c(nc(N)n2C2OC(CO)C(O)C2O)n(C)c1=O` (stereo unspecified), for which the TGI with NCI/ADR-RES ovarian, with HL-60(TB) leukemia, in the assay on HCC-2998 colon, in the assay on DU-145 prostate, in the assay with A498 renal and with U251 CNS was greater than 100 µM in each case. Moreover, the TGI with NCI-H460 lung, in the assay on SK-OV-3 ovarian, in the assay on K-562 leukemia, in the assay with OVCAR-5 ovarian, with HCT-15 colon and with HT29 colon was greater than 100 µM in each case. For the same compound, the TGI with HOP-92 NSCLC, in the assay on OVCAR-8 ovarian, with COLO 205 colon, in the assay on CCRF-CEM leukemia, in the assay on CAKI-1 renal and with TK-10 renal was greater than 100 µM throughout.
Take `CCOC(=O)CCC(NC(=O)c1ccc(Nc2nc3ccccc3n3cccc23)cc1)C(=O)OCC` (stereo unspecified): the TGI was 48.5 µM with NCI/ADR-RES ovarian; greater than 100 µM in the assay on HL-60(TB) leukemia; greater than 100 µM with HCC-2998 colon; 97.7 µM with DU-145 prostate; greater than 100 µM in the assay with A498 renal; 62.3 µM in the assay with U251 CNS. In addition, the TGI in the assay with NCI-H460 lung was greater than 100 µM; in the assay on SK-OV-3 ovarian it was 50.1 µM; in the assay on K-562 leukemia it was greater than 100 µM; in the assay with OVCAR-5 ovarian it was greater than 100 µM; with HCT-15 colon it was greater than 100 µM; with HT29 colon, greater than 100 µM. Also, the TGI in the assay on HOP-92 NSCLC is greater than 100 µM; with OVCAR-8 ovarian it was 77.9 µM; in the assay on COLO 205 colon it was greater than 100 µM; in the assay with CCRF-CEM leukemia, greater than 100 µM; in the assay with CAKI-1 renal, greater than 100 µM; with TK-10 renal, 64.7 µM.
`CCO/C=N/C1=C(C#N)C(c2ccc(Cl)cc2)c2c(-c3ccccc3)nn(-c3ccccc3)c2O1` (stereo unspecified): the TGI was greater than 85.4 µM in the assay with NCI/ADR-RES ovarian; greater than 100 µM with HL-60(TB) leukemia; greater than 38.9 µM with HCC-2998 colon; greater than 31.6 µM in the assay with DU-145 prostate; 19.9 µM in the assay with A498 renal; 16.8 µM in the assay on U251 CNS. For the same compound, the TGI in the assay with NCI-H460 lung was 46 µM; with SK-OV-3 ovarian, 48.2 µM; in the assay with K-562 leukemia, greater than 100 µM; in the assay on OVCAR-5 ovarian, greater than 70.1 µM; in the assay with HCT-15 colon, greater than 52.5 µM; in the assay with HT29 colon, 64.9 µM. For the same compound, the TGI in the assay with HOP-92 NSCLC is 29.1 µM; with OVCAR-8 ovarian it was greater than 80.8 µM; with COLO 205 colon, greater than 100 µM; in the assay with CCRF-CEM leukemia it was greater than 100 µM; with CAKI-1 renal, 36 µM; in the assay on TK-10 renal, 14.2 µM.
`O=C(NCCNCCNCCNC(=O)c1cc(-c2ccccc2)nc2ccccc12)c1cc(-c2ccccc2)nc2ccccc12`: the TGI in the assay on NCI/ADR-RES ovarian is 29.3 µM; in the assay with HL-60(TB) leukemia it was 3.85 µM; with HCC-2998 colon it was 3.1 µM; in the assay with DU-145 prostate it was 11.8 µM; in the assay with A498 renal, 9.68 µM; in the assay on U251 CNS it was 3.3 µM. The TGI with NCI-H460 lung turned out to be 3.4 µM; in the assay with SK-OV-3 ovarian, 11.1 µM; in the assay on K-562 leukemia, 4.12 µM; with OVCAR-5 ovarian, 4.94 µM; in the assay on HCT-15 colon, 18.9 µM; in the assay with HT29 colon, 3.14 µM. In addition, the TGI in the assay with HOP-92 NSCLC is 7.81 µM; in the assay on OVCAR-8 ovarian it was 3.85 µM; in the assay with COLO 205 colon, 4 µM; in the assay on CCRF-CEM leukemia, greater than 20.5 µM; in the assay on CAKI-1 renal it was 29.4 µM; with TK-10 renal, 11.4 µM.
On to `Cc1cc(S(=O)(=O)NC2=NC(c3ccccc3)c3ccccc3N2)c(S)cc1Cl` (stereo unspecified), for which the TGI in the assay on NCI/ADR-RES ovarian, in the assay on HL-60(TB) leukemia, in the assay on HCC-2998 colon, with DU-145 prostate, in the assay on A498 renal and in the assay with U251 CNS was greater than 100 µM each time. Besides, the TGI in the assay on NCI-H460 lung, in the assay on SK-OV-3 ovarian, with K-562 leukemia, in the assay on OVCAR-5 ovarian, in the assay with HCT-15 colon and with HT29 colon was greater than 100 µM in each case. Also, the TGI in the assay with HOP-92 NSCLC, with OVCAR-8 ovarian, in the assay with COLO 205 colon, in the assay on CCRF-CEM leukemia, in the assay with CAKI-1 renal and in the assay with TK-10 renal was greater than 100 µM throughout.
